Reference: PubChem BioAssay (NCI)
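Briefly, cells in 96-well plates were exposed to five compound concentrations for 48 h, and endpoints were estimated by linear interpolation. Abbreviation: GI50, concentration required for 50% inhibition of growth. TGI denotes the concentration required for complete inhibition of growth.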

Tests used:
Assay in all cases: growth of human tumour cells (NCI), 48 h
SN12C renal = test system: SN12C renal
UACC-62 melanoma = test system: UACC-62 melanoma
SNB-75 CNS = test system: SNB-75 CNS
HCC-2998 colon = test system: HCC-2998 colon
U251 CNS = test system: U251 CNS
NCI/ADR-RES ovarian = test system: NCI/ADR-RES ovarian
SW-620 colon = test system: SW-620 colon
CCRF-CEM leukemia = test system: CCRF-CEM leukemia
MOLT-4 leukemia = test system: MOLT-4 leukemia
SF-268 CNS = test system: SF-268 CNS
OVCAR-8 ovarian = test system: OVCAR-8 ovarian
SK-OV-3 ovarian = test system: SK-OV-3 ovarian
HS 578T breast = test system: HS 578T breast
NCI-H226 lung = test system: NCI-H226 lung
MDA-MB-435 = test system: MDA-MB-435
NCI-H460 lung = test system: NCI-H460 lung
UACC-257 melanoma = test system: UACC-257 melanoma
SNB-19 CNS = test system: SNB-19 CNS
RXF 393 renal = test system: RXF 393 renal
SF-539 CNS = test system: SF-539 CNS
ACHN renal = test system: ACHN renal
SF-295 CNS = test system: SF-295 CNS
M14 melanoma = test system: M14 melanoma
MDA-MB-231 breast = test system: MDA-MB-231 breast
HCT-15 colon = test system: HCT-15 colon
HT29 colon = test system: HT29 colon
HCT-116 colon = test system: HCT-116 colon
IGROV1 ovarian = test system: IGROV1 ovarian
RPMI-8226 leukemia = test system: RPMI-8226 leukemia
A498 renal = test system: A498 renal
786-0 renal = test system: 786-0 renal
A549 NSCLC = test system: A549 NSCLC
MALME-3M melanoma = test system: MALME-3M melanoma
EKVX NSCLC = test system: EKVX NSCLC
KM12 colon = test system: KM12 colon
SR leukemia = test system: SR leukemia
HL-60(TB) leukemia = test system: HL-60(TB) leukemia
MCF7 breast = test system: MCF7 breast
SK-MEL-28 melanoma = test system: SK-MEL-28 melanoma
TK-10 renal = test system: TK-10 renal
NCI-H23 lung = test system: NCI-H23 lung
UO-31 renal = test system: UO-31 renal
OVCAR-4 ovarian = test system: OVCAR-4 ovarian
T-47D breast = test system: T-47D breast
HOP-62 NSCLC = test system: HOP-62 NSCLC
DU-145 prostate = test system: DU-145 prostate
OVCAR-5 ovarian = test system: OVCAR-5 ovarian
HOP-92 NSCLC = test system: HOP-92 NSCLC
SK-MEL-5 melanoma = test system: SK-MEL-5 melanoma
SK-MEL-2 melanoma = test system: SK-MEL-2 melanoma
PC-3 prostate = test system: PC-3 prostate
OVCAR-3 ovarian = test system: OVCAR-3 ovarian
NCI-H522 lung = test system: NCI-H522 lung
LOX IMVI melanoma = test system: LOX IMVI melanoma
CAKI-1 renal = test system: CAKI-1 renal
COLO 205 colon = test system: COLO 205 colon
K-562 leukemia = test system: K-562 leukemia

Structure (SMILES): COc1ccccc1N1CCN(CCCNC(=O)c2cc(Cl)c(N)c(Cl)c2)CC1
- TGI (SN12C renal): > 100 µM
- TGI (UACC-62 melanoma): > 100 µM
- TGI (SNB-75 CNS): > 100 µM
- TGI (HCC-2998 colon): 41.6 µM
- TGI (U251 CNS): > 100 µM
- TGI (NCI/ADR-RES ovarian): > 100 µM
- TGI (SW-620 colon): > 100 µM
- TGI (CCRF-CEM leukemia): > 100 µM
- TGI (MOLT-4 leukemia): 92.6 µM
- TGI (SF-268 CNS): > 100 µM
- TGI (OVCAR-8 ovarian): > 100 µM
- TGI (SK-OV-3 ovarian): > 100 µM
- TGI (HS 578T breast): > 100 µM
- TGI (NCI-H226 lung): 98 µM
- TGI (MDA-MB-435): > 100 µM
- TGI (NCI-H460 lung): > 100 µM
- TGI (UACC-257 melanoma): 47.8 µM
- TGI (SNB-19 CNS): > 100 µM
- TGI (RXF 393 renal): 91 µM
- TGI (SF-539 CNS): > 100 µM
- TGI (ACHN renal): > 100 µM
- TGI (SF-295 CNS): 34.1 µM
- TGI (M14 melanoma): 53.1 µM
- TGI (MDA-MB-231 breast): > 100 µM
- TGI (HCT-15 colon): > 100 µM
- TGI (HT29 colon): > 100 µM
- TGI (HCT-116 colon): > 100 µM
- TGI (IGROV1 ovarian): > 100 µM
- TGI (RPMI-8226 leukemia): 54.5 µM
- TGI (A498 renal): > 100 µM
- TGI (786-0 renal): > 100 µM
- TGI (A549 NSCLC): > 100 µM
- TGI (MALME-3M melanoma): 37.7 µM
- TGI (EKVX NSCLC): > 100 µM
- TGI (KM12 colon): > 100 µM
- TGI (SR leukemia): 67.5 µM
- TGI (HL-60(TB) leukemia): 55.8 µM
- TGI (MCF7 breast): > 100 µM
- TGI (SK-MEL-28 melanoma): > 100 µM
- TGI (TK-10 renal): > 100 µM
- TGI (NCI-H23 lung): > 100 µM
- TGI (UO-31 renal): 58.1 µM
- TGI (OVCAR-4 ovarian): > 100 µM
- TGI (T-47D breast): > 100 µM
- TGI (HOP-62 NSCLC): > 100 µM
- TGI (DU-145 prostate): > 100 µM
- TGI (OVCAR-5 ovarian): > 100 µM
- TGI (HOP-92 NSCLC): 31.4 µM
- TGI (SK-MEL-5 melanoma): 33.2 µM

Structure (SMILES): O=C(Nc1ccc(-n2cc(-c3ccncc3)c(-c3ccc(O)c(Cl)c3)n2)cc1)Nc1cccc(Cl)c1Cl
- GI50 (SN12C renal): 19.9 µM
- TGI (SN12C renal): > 32.5 µM
- GI50 (SK-MEL-2 melanoma): 7.18 µM
- TGI (SK-MEL-2 melanoma): > 32.5 µM
- GI50 (UACC-62 melanoma): 9.79 µM
- TGI (UACC-62 melanoma): > 32.5 µM
- GI50 (SNB-75 CNS): 5.51 µM
- TGI (SNB-75 CNS): > 32.5 µM
- GI50 (HCC-2998 colon): 18.9 µM
- TGI (HCC-2998 colon): > 32.5 µM
- GI50 (U251 CNS): 2.54 µM
- TGI (U251 CNS): 25 µM
- GI50 (NCI/ADR-RES ovarian): > 32.5 µM
- TGI (NCI/ADR-RES ovarian): > 32.5 µM
- GI50 (PC-3 prostate): 1.73 µM
- TGI (PC-3 prostate): 14.3 µM
- GI50 (SW-620 colon): 20.6 µM
- TGI (SW-620 colon): > 32.5 µM
- GI50 (CCRF-CEM leukemia): 2.47 µM
- TGI (CCRF-CEM leukemia): > 32.5 µM
- GI50 (OVCAR-3 ovarian): 6.67 µM
- TGI (OVCAR-3 ovarian): > 32.5 µM
- GI50 (NCI-H522 lung): 4.03 µM
- TGI (NCI-H522 lung): > 32.5 µM
- GI50 (MOLT-4 leukemia): 3.7 µM
- TGI (MOLT-4 leukemia): > 32.5 µM
- GI50 (SF-268 CNS): 18.6 µM
- TGI (SF-268 CNS): > 32.5 µM
- GI50 (LOX IMVI melanoma): 3.45 µM
- TGI (LOX IMVI melanoma): > 32.5 µM
- GI50 (OVCAR-8 ovarian): 6.86 µM
- TGI (OVCAR-8 ovarian): > 32.5 µM
- GI50 (CAKI-1 renal): > 32.5 µM
- TGI (CAKI-1 renal): > 32.5 µM
- GI50 (HS 578T breast): 2.84 µM
- TGI (HS 578T breast): 26.5 µM
- GI50 (NCI-H226 lung): > 32.5 µM
- TGI (NCI-H226 lung): > 32.5 µM
- GI50 (MDA-MB-435): 4.5 µM
- TGI (MDA-MB-435): > 32.5 µM
- GI50 (NCI-H460 lung): 5.74 µM
- TGI (NCI-H460 lung): > 32.5 µM
- GI50 (UACC-257 melanoma): 18.6 µM
- TGI (UACC-257 melanoma): > 32.5 µM
- GI50 (COLO 205 colon): 4.54 µM
- TGI (COLO 205 colon): 13 µM
- GI50 (SNB-19 CNS): 15.8 µM
- TGI (SNB-19 CNS): > 32.5 µM
- GI50 (RXF 393 renal): 0.973 µM
- TGI (RXF 393 renal): 5.25 µM
- GI50 (SF-539 CNS): 2.04 µM
- TGI (SF-539 CNS): 9.27 µM
- GI50 (ACHN renal): 7.82 µM
- TGI (ACHN renal): > 32.5 µM
- GI50 (SF-295 CNS): 6.13 µM
- TGI (SF-295 CNS): > 32.5 µM
- GI50 (M14 melanoma): 3.16 µM
- TGI (M14 melanoma): > 32.5 µM
- GI50 (MDA-MB-231 breast): 1.52 µM
- TGI (MDA-MB-231 breast): 10.3 µM
- GI50 (HCT-15 colon): 5.33 µM
- TGI (HCT-15 colon): > 32.5 µM
- GI50 (HT29 colon): 3.87 µM
- TGI (HT29 colon): 10.4 µM
- GI50 (HCT-116 colon): 3.26 µM
- TGI (HCT-116 colon): 21.6 µM
- GI50 (IGROV1 ovarian): 14.5 µM
- TGI (IGROV1 ovarian): > 32.5 µM
- GI50 (RPMI-8226 leukemia): 0.912 µM
- TGI (RPMI-8226 leukemia): 6.08 µM
- GI50 (A498 renal): 13.8 µM
- TGI (A498 renal): > 32.5 µM
- GI50 (A549 NSCLC): 9.11 µM
- TGI (A549 NSCLC): > 32.5 µM
- GI50 (MALME-3M melanoma): 4.94 µM
- TGI (MALME-3M melanoma): > 32.5 µM
- GI50 (EKVX NSCLC): 9.99 µM
- TGI (EKVX NSCLC): > 32.5 µM
- GI50 (KM12 colon): 5.95 µM
- TGI (KM12 colon): > 32.5 µM
- GI50 (SR leukemia): 30.6 µM
- TGI (SR leukemia): > 32.5 µM
- GI50 (HL-60(TB) leukemia): 7.49 µM
- TGI (HL-60(TB) leukemia): > 32.5 µM
- GI50 (MCF7 breast): 4.2 µM
- TGI (MCF7 breast): > 32.5 µM
- GI50 (SK-MEL-28 melanoma): 5.8 µM
- TGI (SK-MEL-28 melanoma): 18 µM
- GI50 (TK-10 renal): 6.52 µM
- TGI (TK-10 renal): 22.1 µM
- GI50 (NCI-H23 lung): 14.6 µM
- TGI (NCI-H23 lung): > 32.5 µM
- GI50 (UO-31 renal): 6.67 µM
- TGI (UO-31 renal): > 32.5 µM
- GI50 (OVCAR-4 ovarian): 5.47 µM
- TGI (OVCAR-4 ovarian): > 32.5 µM
- GI50 (T-47D breast): 8.62 µM
- TGI (T-47D breast): > 32.5 µM
- GI50 (HOP-62 NSCLC): 10.6 µM
- TGI (HOP-62 NSCLC): > 32.5 µM
- GI50 (DU-145 prostate): 12.8 µM
- TGI (DU-145 prostate): > 32.5 µM
- GI50 (K-562 leukemia): 5.4 µM
- TGI (K-562 leukemia): > 32.5 µM
- GI50 (OVCAR-5 ovarian): > 32.5 µM
- TGI (OVCAR-5 ovarian): > 32.5 µM
- GI50 (HOP-92 NSCLC): 1.16 µM
- TGI (HOP-92 NSCLC): 9.84 µM
- GI50 (SK-MEL-5 melanoma): 3.26 µM
- TGI (SK-MEL-5 melanoma): > 32.5 µM
